Experimental data reported in ChEMBL document CHEMBL4196052, “Rational modifications on a benzylidene-acrylohydrazide antiviral scaffold, synthesis and evaluation of bioactivity against Chikungunya virus” (Eur J Med Chem, 2018).

Assays:
Chikungunya virus [1] = assay: Antiviral activity against Chikungunya virus Indian Ocean strain 899 infected in African green monkey Vero cells assessed as inhibition of viral-induced cytopathic effect measured on day 5 post infection by MTS/PMS assay; format: functional, organism-based, Indian Ocean 899; conditions: for EC50 / EC90: Chikungunya virus, Indian Ocean 899, Vero, 120 h
Chikungunya virus [2] = assay: Antiviral activity against Chikungunya virus Indian Ocean strain 899 infected in African green monkey Vero cells assessed as inhibition of viral-induced cytopathic effect by measuring concentration required for maximum activity measured on day 5 post infection by MTS/PMS assay; format: functional, Indian Ocean 899
[3] = Cytotoxicity against African green monkey Vero cells by MTS/PMS assay; format: cell-based; conditions: chlorocebus sabaeus
[4] = Selectivity index, ratio of CC50 for African green monkey Vero cells to EC50 for Chikungunya virus Indian Ocean strain 899 infected in African green monkey Vero cells; format: toxicity; conditions: read-out: Ratio CC50/EC50

## Cc1ccc(-c2nnc(Cc3ccc(C(C)(C)C)cc3)o2)cc1
Chikungunya virus [1]
  Imax: 100%
  EC50: 17.9 µM
  EC90: 22.7 µM
Chikungunya virus [2]
  Activity: 27.2 µM

## CCOc1ccc(/C=N/NC(=O)CC(=O)c2ccc(C(C)(C)C)cc2)cc1OCC
Chikungunya virus [1]
  Imax: 4%
  EC50: > 244 µM
  EC90: > 244 µM
[3]
  CC50: 81 µM
Chikungunya virus [2]
  Activity: 244 µM

## CCOc1ccc(/C=N/NC(=O)c2nc3ccccc3[nH]2)cc1OCC
Chikungunya virus [1]
  Imax: 6%
  EC50: > 284 µM
  EC90: > 284 µM
Chikungunya virus [2]
  Activity: 284 µM

## Cc1ccc(-c2cn(CCc3ccccc3)nn2)cc1
Chikungunya virus [1]
  Imax: 74%
  EC50: 122 µM
[3]
  CC50: 200 µM
[4]
  selectivity ratio: 1.6
Chikungunya virus [2]
  Activity: 163 µM

## CCOc1ccc(/C=N/NC(=O)/C=C/c2ccc(OC)cc2)cc1OCC
Chikungunya virus [1]
  Imax: 8%
  EC50: > 271 µM
  EC90: > 271 µM
Chikungunya virus [2]
  Activity: 45 µM

## CCOc1ccc(-c2nnc(CCc3ccccc3)o2)cc1OCC
Chikungunya virus [1]
  Imax: 4%
  EC50: > 98.4 µM
  EC90: > 98.4 µM
Chikungunya virus [2]
  Activity: 73.9 µM

## CCOc1ccc(-c2nnc(CCc3ccc(C(C)(C)C)cc3)o2)cc1OCC
Chikungunya virus [1]
  Imax: 61%
  EC50: 12.4 µM
[3]
  CC50: 15.5 µM
[4]
  selectivity ratio: 1.2
Chikungunya virus [2]
  Activity: 13.5 µM

## CCOc1ccc(/C=N/NC(=O)/C=C/c2ccc(-c3ccccc3)cc2)cc1OCC
Chikungunya virus [1]
  Imax: 47%
  EC50: > 80.2 µM
  EC90: > 80.2 µM
Chikungunya virus [2]
  Activity: 120 µM

## Cc1ccc(CNC(=O)N/C=C/c2ccc(C(C)(C)C)cc2)cc1
Chikungunya virus [1]
  Imax: 10%
  EC50: > 103 µM
  EC90: > 103 µM
Chikungunya virus [2]
  Activity: 103 µM

## Cc1ccc(NC(=O)N/C=C/c2ccccc2)cc1
Chikungunya virus [1]
  Imax: 21%
  EC50: > 396 µM
  EC90: > 396 µM
Chikungunya virus [2]
  Activity: 396 µM

## O=C(N/C=C/c1ccccc1)Nc1ccc(O)cc1
Chikungunya virus [1]
  Imax: 2%
  EC50: > 393 µM
  EC90: > 393 µM
Chikungunya virus [2]
  Activity: 197 µM

## O=C(N/N=C/c1ccc(O)cc1)c1nc2ccccc2[nH]1
Chikungunya virus [1]
  Imax: 33%
  EC50: > 357 µM
  EC90: > 357 µM
Chikungunya virus [2]
  Activity: 357 µM

## Cc1ccc(/C=N/NC(=S)NCCc2ccccc2)cc1
Chikungunya virus [1]
  Imax: 12%
  EC50: > 336 µM
  EC90: > 336 µM
Chikungunya virus [2]
  Activity: 56 µM

## Cc1ccc2[nH]c(NC(=O)CCc3ccc(C(C)(C)C)cc3)nc2c1
Chikungunya virus [1]
  Imax: 8%
  EC50: > 298 µM
  EC90: > 298 µM
Chikungunya virus [2]
  Activity: 1.6 µM

## C/C(=N\NC(=O)c1cc2ccccc2[nH]1)c1ccc(C2CCCCC2)cc1
Chikungunya virus [1]
  Imax: 41%
  EC50: > 209 µM
  EC90: > 209 µM
Chikungunya virus [2]
  Activity: 209 µM

## Cc1ccc(/C=N/NC(=O)c2ccc3ccccc3c2)cc1
Chikungunya virus [1]
  Imax: 10%
  EC50: > 347 µM
  EC90: > 347 µM
Chikungunya virus [2]
  Activity: 347 µM

## Cc1ccc(/C=N/NC(=O)c2nc3ccccc3[nH]2)cc1
Chikungunya virus [1]
  Imax: 14%
  EC50: > 120 µM
  EC90: > 120 µM
Chikungunya virus [2]
  Activity: 120 µM

## CC(C)(C)c1ccc(/C=C/C(=O)Nc2nc3ccccc3[nH]2)cc1
Chikungunya virus [1]
  Imax: 38%
  EC50: > 157 µM
  EC90: > 157 µM
Chikungunya virus [2]
  Activity: 157 µM

## C/C(=N\NC(=O)c1ccc2ccccc2n1)c1ccc(C2CCCCC2)cc1
Chikungunya virus [1]
  Imax: 13%
  EC50: > 269 µM
  EC90: > 269 µM
Chikungunya virus [2]
  Activity: 269 µM

## COc1ccc(/C=C/C(=O)N/N=C(\C)c2ccc(C3CCCCC3)cc2)cc1
Chikungunya virus [1]
  Imax: 9%
  EC50: > 87.7 µM
  EC90: > 87.7 µM
Chikungunya virus [2]
  Activity: 66 µM

## Cc1ccc(C(=O)NNC(=O)/C=C/c2ccc(C(C)(C)C)cc2)cc1
Chikungunya virus [1]
  Imax: 9%
  EC50: > 99.1 µM
  EC90: > 99.1 µM
Chikungunya virus [2]
  Activity: 99.1 µM

## Cc1ccc(-c2nnc(CCc3ccc(C(C)(C)C)cc3)o2)cc1
Chikungunya virus [1]
  Imax: 100%
  EC50: 17.2 µM
  EC90: 21.7 µM
Chikungunya virus [2]
  Activity: 26 µM

## Cc1ccc(-c2nnc(/C=C/c3ccc(C(C)(C)C)cc3)o2)cc1
Chikungunya virus [1]
  Imax: 8%
  EC50: > 157 µM
  EC90: > 157 µM
Chikungunya virus [2]
  Activity: 157 µM

## Cc1ccc2[nH]c(NC(=O)/C=C/c3ccc(C(C)(C)C)cc3)nc2c1
Chikungunya virus [1]
  Imax: 47%
  EC50: > 300 µM
  EC90: > 300 µM
Chikungunya virus [2]
  Activity: 300 µM

## C/C(=N\NC(=O)/C=C/c1ccc(-c2ccccc2)cc1)c1ccc(C2CCCCC2)cc1
Chikungunya virus [1]
  Imax: 15%
  EC50: > 29.6 µM
  EC90: > 29.6 µM
Chikungunya virus [2]
  Activity: 30 µM

## CC(C)(C)c1ccc(/C=C/NC(=O)Nc2ccc(O)cc2)cc1
Chikungunya virus [1]
  Imax: 100%
  EC50: 9.1 µM
  EC90: 11.9 µM
Chikungunya virus [2]
  Activity: 4.1 µM

## C/C(=N\NC(=O)/C=C/c1ccc(C(C)C)cc1)c1ccc(C2CCCCC2)cc1
Chikungunya virus [1]
  Imax: 13%
  EC50: > 193 µM
  EC90: > 193 µM
Chikungunya virus [2]
  Activity: 193 µM

## CCOc1ccc(-c2nnc(/C=C/c3ccc(C(C)(C)C)cc3)o2)cc1OCC
Chikungunya virus [1]
  Imax: 100%
  EC50: 29 µM
  EC90: 88.2 µM
Chikungunya virus [2]
  Activity: 127.4 µM

## O=C(N/N=C/c1ccc(O)cc1)c1ccc2ccccc2n1
Chikungunya virus [1]
  Imax: <1%
  EC50: > 343 µM
  EC90: > 343 µM
Chikungunya virus [2]
  Activity: 343 µM

## Cc1ccc(NC(=O)N/C=C/c2ccc(C(C)(C)C)cc2)cc1
Chikungunya virus [1]
  Imax: 16%
  EC50: > 61 µM
  EC90: > 61 µM
Chikungunya virus [2]
  Activity: 61 µM

## CCOc1ccc(/C=N/NC(=O)N/C=C/c2ccc(C(C)(C)C)cc2)cc1OCC
Chikungunya virus [1]
  Imax: 49%
  EC50: > 100 µM
  EC90: > 100 µM
Chikungunya virus [2]
  Activity: 100 µM

## Cc1ccc(/C=N/NC(=O)c2ccc3ccccc3n2)cc1
Chikungunya virus [1]
  Imax: 3%
  EC50: > 346 µM
  EC90: > 346 µM
Chikungunya virus [2]
  Activity: 346 µM

## O=C(N/N=C/c1ccc(O)cc1)c1cc2ccccc2[nH]1
Chikungunya virus [1]
  Imax: 51%
  EC50: 348 µM
  EC90: > 358 µM
Chikungunya virus [2]
  Activity: 358 µM

## Cc1ccc(-c2nnc(CCc3ccccc3)o2)cc1
Chikungunya virus [1]
  Imax: 2%
  EC50: > 378 µM
  EC90: > 378 µM
Chikungunya virus [2]
  Activity: 1 µM

## CCOc1ccc(/C=N/NC(=O)/C=C/c2ccc(C(C)(C)C)cc2)cc1OCC
Chikungunya virus [1]
  Imax: 100%
  EC90: 11 µM
Chikungunya virus [2]
  Activity: 12.5 µM

## CCOc1ccc(/C=N/NC(=O)c2cc3ccccc3[nH]2)cc1OCC
Chikungunya virus [1]
  Imax: 50%
  EC50: > 213 µM
  EC90: > 213 µM
Chikungunya virus [2]
  Activity: 213 µM

## Cc1ccc(/C=N/NC(=O)c2cnc3ccccc3c2)cc1
Chikungunya virus [1]
  Imax: 27%
  EC50: > 346 µM
  EC90: > 346 µM
Chikungunya virus [2]
  Activity: 346 µM

## CCOc1ccc(/C=N/NC(=O)c2ccc3ccccc3n2)cc1OCC
Chikungunya virus [1]
  Imax: 8%
  EC50: > 275 µM
  EC90: > 275 µM
Chikungunya virus [2]
  Activity: 275 µM

## C/C(=N\NC(=O)c1cnc2ccccc2c1)c1ccc(C2CCCCC2)cc1
Chikungunya virus [1]
  Imax: 19%
  EC50: > 202 µM
  EC90: > 202 µM
Chikungunya virus [2]
  Activity: 202 µM

## CCOc1ccc(-c2nnc(Cc3ccc(C(C)(C)C)cc3)o2)cc1OCC
Chikungunya virus [1]
  Imax: 15%
  EC50: 39.7 µM
Chikungunya virus [2]
  Activity: 131.4 µM

## CCOc1ccc(/C=N/NC(=O)/C=C/c2ccc(C(C)C)cc2)cc1OCC
Chikungunya virus [1]
  Imax: 30%
  EC50: > 29.2 µM
  EC90: > 29.2 µM
Chikungunya virus [2]
  Activity: 8 µM

## COc1ccc(CNC(=O)N/C=C/c2ccc(C(C)(C)C)cc2)cc1OC
Chikungunya virus [1]
  Imax: 100%
  EC50: 11.6 µM
  EC90: 14.8 µM
Chikungunya virus [2]
  Activity: 17 µM

## O=C(N/N=C/c1ccc(O)cc1)c1ccc2ccccc2c1
Chikungunya virus [1]
  Imax: 2%
  EC50: > 344 µM
  EC90: > 344 µM
Chikungunya virus [2]
  Activity: 344 µM

## Cc1ccc(CNC(=O)N/C=C/c2ccccc2)cc1
Chikungunya virus [1]
  Imax: 18%
  EC50: > 376 µM
  EC90: > 376 µM
Chikungunya virus [2]
  Activity: 376 µM

## CC(C)(C)c1ccc(/C=C/NC(=O)NCc2ccccc2)cc1
Chikungunya virus [1]
  Imax: 8%
  EC50: > 107 µM
  EC90: > 107 µM
Chikungunya virus [2]
  Activity: 107 µM

## CCOc1ccc(C(=O)NNC(=O)/C=C/c2ccc(C(C)(C)C)cc2)cc1OCC
Chikungunya virus [1]
  Imax: 11%
  EC50: > 244 µM
  EC90: > 244 µM
Chikungunya virus [2]
  Activity: 6.3 µM

## Cc1ccc(/C=N/NC(=O)c2cc3ccccc3[nH]2)cc1
Chikungunya virus [1]
  Imax: 45%
  EC50: > 361 µM
  EC90: > 361 µM
Chikungunya virus [2]
  Activity: 361 µM

## COc1ccc(/C=C/C(=O)N/N=C/c2ccc(C)cc2)cc1
Chikungunya virus [1]
  Imax: 13%
  EC50: > 112 µM
  EC90: > 112 µM
Chikungunya virus [2]
  Activity: 112 µM

## CCN(CC)CCCC(C)Nc1ccnc2cc(Cl)ccc12 (configuration not stated) [CHLOROQUINE]
Chikungunya virus [1]
  EC90: 21 µM

## CCOc1ccc(/C=N/NC(=O)c2cnc3ccccc3c2)cc1OCC
Chikungunya virus [1]
  Imax: 3%
  EC50: > 275 µM
  EC90: > 275 µM
Chikungunya virus [2]
  Activity: 275 µM

## COc1ccc(CNC(=O)N/C=C/c2ccccc2)cc1OC
Chikungunya virus [1]
  Imax: 13%
  EC50: > 320 µM
  EC90: > 320 µM
Chikungunya virus [2]
  Activity: 320 µM

## Cc1ccc(/C=N/NC(=O)CC(=O)c2ccc(C(C)(C)C)cc2)cc1
Chikungunya virus [1]
  Imax: 13%
  EC50: > 74 µM
  EC90: > 74 µM
[3]
  CC50: 84 µM
Chikungunya virus [2]
  Activity: 74 µM

## O=C(N/N=C/c1ccc(O)cc1)c1cnc2ccccc2c1
Chikungunya virus [1]
  Imax: <1%
  EC50: > 343 µM
  EC90: > 343 µM
Chikungunya virus [2]
  Activity: 343 µM

## CC(C)(C)c1ccc(CCC(=O)Nc2nc3ccccc3[nH]2)cc1
Chikungunya virus [1]
  Imax: 41%
  EC50: > 311 µM
  EC90: > 311 µM
Chikungunya virus [2]
  Activity: 311 µM

## CCOc1ccc(/C=N/NC(=O)c2ccc3ccccc3c2)cc1OCC
Chikungunya virus [1]
  Imax: 24%
  EC50: > 276 µM
  EC90: > 276 µM
Chikungunya virus [2]
  Activity: 276 µM

## C/C(=N\NC(=O)/C=C/c1ccc(C(F)(F)F)cc1)c1ccc(C2CCCCC2)cc1
Chikungunya virus [1]
  Imax: 12%
  EC50: > 241 µM
  EC90: > 241 µM
Chikungunya virus [2]
  Activity: 241 µM

## C/C(=N\NC(=O)c1ccc2ccccc2c1)c1ccc(C2CCCCC2)cc1
Chikungunya virus [1]
  Imax: 14%
  EC50: > 270 µM
  EC90: > 270 µM
Chikungunya virus [2]
  Activity: 270 µM
